Among the data in patent US12084430B2, “Tricyclic urea compounds as JAK2 V617F inhibitors” (Incyte Corporation, priority 2022, dated 2024) are IC50 and h-IntCL values, retold here.

Data set [1] concerns pSTAT5 signaling in SET-2 cells in whole blood. Kind of data set: pSTAT5 SET-2 whole blood MSD assay. The format is cell-based. The following applies: Homo sapiens, pSTAT5, 2 hour, read-out: SET2 WB IC50. Here is the method:
Example F. pSTAT5 SET-2 Whole Blood MSD Assay
SET-2 cells shipped from ABS, RPMI1640 medium, Fetal Bovine Serum from Gibco, Phospho-STAT5a,b Whole Cell Lysate Kit from Mesoscale, Retronectin (Recombinant Human Fibronectin Fragment) from TaKaRa, 96 well cell culture plate flat bottom from Corning, lysis buffer from Cell Signaling Technology, and sterile PBS from Gibco. Whole Blood from by BioIVT.
SET-2 cells were cultured in RPMI media with 20% FBS at 37° C. humidified incubator supplied with 5% CO2. On the day of the assay, 40 uL per well of diluted retronectin working solution was added to sterile 96-well clear flat bottom tissue culture plates (1:200 dilution of retronectin in sterile PBS) and incubated at 37 C for 1 hour. After 1 hour, the retronectin working solution was aspirated and SET-2 cells were seeded at 100,000/well in RPMI+20% FBS. Cells were incubated overnight at 37° C. and 5% CO2. The next day, the medium was removed and 40 μL of diluted compounds in serum-free RPMI and whole blood was added to the cells for a 2 hour incubation at 37° C. and 5% CO2. The compound starting concentration is 20 μM and 2.5 fold serial diluted down to 0.21 nM. The whole blood and compound mixture was then aspirated off using the BlueCat plate washer and washed 1× with PBS. Cells were lysed by adding 40 μL of 3× complete lysis buffer and shaken at room temperature for 45-60 minutes (complete lysis buffer consists of Cell Signaling Technology lysis buffer diluted to 3× and supplemented with Mesoscale's protease inhibitor, phosphatase I inhibitor, and phosphatase II inhibitor). The pSTAT5 MSD plates were blocked by adding 150 μL of Blocker A solution per well to the MSD plates and incubated at room temperature with shaking at 400 rpm for one hour or longer. After blocking, plates were washed 3× with 300 μL/well of IX Tris Wash Buffer. After lysis, added 25 μL per well of lysed sample was added to MSD plate and incubated with shaking at 4° C. wrapped in foil overnight. The next day, plates were washed again and 25 μL/well of diluted 1× Detection Antibody Solution, wrapped in foil, and incubated at room temperature with shaking at 400 rpm for 1 hour. Plates were then washed again and lastly, 150 μL/well of 1× Read Buffer T was added to all wells. Plates were analyzed on MSD Discovery within 5 minutes. […] Data analysis was performed in GraphPad Prism using a 4-parameter fit and data was reported as Average±SD.

Data set [2] deals with STAT5 (Tyr694) phosphorylation in SET-2 cells. Kind of data set: STAT5 (Tyr694) phosphorylation cell based assay. The following applies: Homo sapiens, pSTAT5, 2 hours, read-out: SET2 IC50. Here is the method:
Example E. STAT5 (Tyr694) Phosphorylation Cell Based Assay
SET-2 cells was purchased from DSMZ (Germany). RPMI1640 medium, Fetal Bovine Serum and 384-white sold flat-bottom small volume plate were purchased from Thermo Fisher Scientific (Waltham, MA). Phospho-STAT5 (Tyr694) HTRF kit was purchased from Perkin Elmer (Waltham, MA).
SET-2 cells were cultured in RPMI media with 20% FBS at 37° C. in humidified incubator supplied with 5% CO2. On the day of assay, the cells were centrifuged to remove the culture media and resuspended with prewarmed RPMI with 10% FBS. Testing compounds were prepared by serial dilution in DMSO and 50 nL/well test compounds were transferred to the 384 white low volume cell culture plate (Greiner Bio-one) by ECHO liquid handler (Labcyte). The cells were then dispensed with Multidrop (Thermo Fisher, Waltham, MA) at 10 μL/well (7×10^6 cells/mL) with 0.5% DMSO in the final assay. After the treated cells were incubated for 2 hours at 37° C./5% CO2 incubator, 4 μL/well supplemented lysis buffer (100× blocking buffer diluted 25 fold in 4× lysis buffer, Perkin Elmer) were added and incubated at room temperature for 90 min on orbital shaker at 600 rpm. Phospho-STAT5 Cryptate antibody and Phospho-STAT5 d2 antibody (1:1 vol/vol) were premixed and diluted 20 fold with in the detection buffer (Perkin Elmer). 4 μL of the premixed antibody solution were added to each well followed with 24 hours incubation at room temperature on orbital shaker at 600 rpm. The product activity was determined by measuring the fluorescence at 620 nm and 665 nm on Pherastar microplate reader (BMG Labtech). A ratio is calculated (665/620) for each well. Wells with DMSO only served as the positive controls and wells containing high concentration of control compound were used as negative controls. IC50 determination was performed by fitting the curve of percent control activity versus the log of the compound concentration using the GraphPad Prism 7.0 software.

A short description of data set [3]: In vitro intrinsic clearance. The format is in vitro ADME. The following applies: human liver microsomes, 1 μM. Here is the method:
Example G. In Vitro Intrinsic Clearance Protocol
For in vitro metabolic stability experiments, test compounds were incubated with human liver microsomes at 37° C. The incubation mixture contained test compounds (1 μM), NADPH (2 mM), and human liver microsomes (0.5 mg protein/mL) in 100 mM phosphate buffer (pH 7.4). The mixture was pre-incubated for 2 min at 37° C. before the addition of NADPH. Reactions were commenced upon the addition of NADPH and quenched with ice-cold methanol at 0, 10, 20, and 30 min. Terminated incubation mixtures were analyzed using LC-MS/MS system. The analytical system consisted of a Shimadzu LC-30AD binary pump system and SIL-30AC autosampler (Shimadzu Scientific Instruments, Columbia, MD) coupled with a Sciex Triple Quad 6500+ mass spectrometer from Applied Biosystems (Foster City, CA). […] Mobile phase A consisted of 0.1% formic acid in water, and mobile phase B consisted of 0.1% formic acid in acetonitrile. The total LC-MS/MS runtime was 2.75 minutes with a flow rate of 0.75 mL/min. Peak area integrations and peak area ratio calculations were performed using Analyst software (version 1.6.3) from Applied Biosystems.
The in vitro intrinsic clearance, CLint, in vitro, was calculated from the t1/2 of test compound disappearance as CLint, in vitro=(0.693/t1/2)×(1/Cprotein), where Cprotein is the protein concentration during the incubation, and t1/2 was determined by the slope (k) of the log-linear regression analysis of the concentration versus time profiles; thus, t1/2=ln 2/k. The CLint, in vitro values were scaled to the in vivo values for human by using physiologically based scaling factors, hepatic microsomal protein concentrations (45 mg protein/g liver), and liver weights (21 g/kg body weight). The equation CLint=CLint, in vitro×(mg protein/g liver weight)×(g liver weight/kg body weight) was used. The in vivo hepatic clearance (CLH) was then calculated by using CLint and hepatic blood flow, Q (20 mL·min^−1·kg^−1 in humans) in the well-stirred liver model disregarding all binding from CLH=(Q×CLint)/(Q+CLint). The hepatic extraction ratio was calculated as CLH divided by Q.
A general note: Liver microsomes are vesicles of endoplasmic reticulum, rich in cytochrome P450 enzymes.

One may read the IC50 as the concentration that inhibits the measured activity by half. Regarding `[2H]C([2H])([2H])Oc1ccc(-c2c(-c3cn(C([2H])([2H])[2H])nc3F)[nH]c3ncc4c(c23)n([C@@H]2CC[C@@H](NC(=O)OC)C2)c(=O)n4C([2H])([2H])[2H])cc1` [Example 9, Methyl ((1R,3R)-3-(7-(3-fluoro-1-(methyl-d3)-1H-pyrazol-4-yl)-8-(4-(methoxy-d3)phenyl)-3-(methyl-d3)-2-oxo-3,6-dihydroimidazo[4,5-d]pyrrolo[2,3-b]pyridin-1(2H)-yl)cyclopentyl)carbamate], the figures for the half-inhibitory concentration (IC50) in data set [1] and in data set [2] were 2500 to 5000 nM and at most 300 nM, respectively. The h-IntCL result in data set [3] is reported as “‡ ‡ (h-IntCL of ≥0.7 L/h/kg to ≤1 L/h/kg)”.

For the molecule `[2H]C([2H])([2H])n1cc(-c2[nH]c3ncc4c(c3c2-c2ccc(C(C)(C)O)cc2)n([C@@H]2CC[C@@H](NC(=O)OC)C2)c(=O)n4C([2H])([2H])[2H])c(F)n1` [Example 10, Methyl ((1R,3R)-3-(7-(3-fluoro-1-(methyl-d3)-1H-pyrazol-4-yl)-8-(4-(2-hydroxypropan-2-yl)phenyl)-3-(methyl-d3)-2-oxo-3,6-dihydroimidazo[4,5-d]pyrrolo[2,3-b]pyridin-1(2H)-yl)cyclopentyl)carbamate], the IC50 in data set [1] is at most 2500 nM; in data set [2], at most 300 nM. In data set [3], the h-IntCL entry is reported as “‡ ‡ (h-IntCL of ≥0.7 L/h/kg to ≤1 L/h/kg)”.

In the case of `[2H]C([2H])([2H])n1cc(-c2[nH]c3ncc4c(c3c2-c2ccc3c(c2)COC3(C)C)n([C@@H]2CC[C@@H](NC(=O)OC)C2)c(=O)n4C)c(F)n1` [Example 11, Methyl ((1R,3R)-3-(8-(1,1-dimethyl-1,3-dihydroisobenzofuran-5-yl)-7-(3-fluoro-1-(methyl-d3)-1H-pyrazol-4-yl)-3-methyl-2-oxo-3,6-dihydroimidazo[4,5-d]pyrrolo[2,3-b]pyridin-1(2H)-yl)cyclopentyl)carbamate], the IC50 is at most 2500 nM in data set [1] and at most 300 nM in data set [2]. Moreover, the h-IntCL result in data set [3] was “‡ ‡ (h-IntCL of ≥0.7 L/h/kg to ≤1 L/h/kg)”.

Turning to `[2H]C([2H])([2H])n1c(=O)n([C@@H]2CC[C@@H](NC(=O)OC)C2)c2c3c(-c4ccc5c(c4)COC5(C)C)c(-c4cn(CC(F)F)nc4F)[nH]c3ncc21` [Example 12, Methyl ((1R,3R)-3-(7-(1-(2,2-difluoroethyl)-3-fluoro-1H-pyrazol-4-yl)-8-(1,1-dimethyl-1,3-dihydroisobenzofuran-5-yl)-3-(methyl-d3)-2-oxo-3,6-dihydroimidazo[4,5-d]pyrrolo[2,3-b]pyridin-1(2H)-yl)cyclopentyl)carbamate], the values for the IC50 in data set [1] and in data set [2] were at most 2500 nM and at most 300 nM, respectively. For the same molecule, the h-IntCL result in data set [3] is “‡ ‡ (h-IntCL of ≥0.7 L/h/kg to ≤1 L/h/kg)”.

For `[2H]C([2H])([2H])n1cc(-c2[nH]c3ncc4c(c3c2-c2ccc3c(cnn3C(C)C)c2)n([C@@H]2CC[C@@H](NC(=O)OC)C2)c(=O)n4C([2H])([2H])[2H])c(F)n1` [Example 13, Methyl ((1R,3R)-3-(7-(3-fluoro-1-(methyl-d3)-1H-pyrazol-4-yl)-8-(1-isopropyl-1H-indazol-5-yl)-3-(methyl-d3)-2-oxo-3,6-dihydroimidazo[4,5-d]pyrrolo[2,3-b]pyridin-1(2H)-yl)cyclopentyl)carbamate], the IC50 in data set [1] is at most 2500 nM; in data set [2], at most 300 nM. Besides, in data set [3], the h-IntCL entry is reported as “‡ ‡ (h-IntCL of ≥0.7 L/h/kg to ≤1 L/h/kg)”.

Consider `[2H]C([2H])([2H])n1cc(-c2[nH]c3ncc4c(c3c2-c2ccc3c(cnn3CC(F)F)c2)n([C@@H]2CC[C@@H](NC(=O)OC)C2)c(=O)n4C([2H])([2H])[2H])c(F)n1` [Example 14, Methyl ((1R,3R)-3-(8-(1-(2,2-difluoroethyl)-1H-indazol-5-yl)-7-(3-fluoro-1-(methyl-d3)-1H-pyrazol-4-yl)-3-(methyl-d3)-2-oxo-3,6-dihydroimidazo[4,5-d]pyrrolo[2,3-b]pyridin-1(2H)-yl)cyclopentyl)carbamate], for which the figures for the IC50 in data set [1] and in data set [2] were at most 2500 nM and at most 300 nM, respectively. Besides, the h-IntCL result in data set [3] is “‡ ‡ (h-IntCL of ≥0.7 L/h/kg to ≤1 L/h/kg)”.
